# Measurements taken from PMC10933438, “Inhibition of urease-mediated ammonia production by 2-octynohydroxamic acid in hepatic encephalopathy” (Nature Communications, 2024).
# Experiments:
# Jack bean urease [1] = target: T1, Jack bean urease (Canavalia ensiformis, UniProt P07374); experiment: cell-free pH-based (phenol red) urease activity assay; delay of half-maximal absorbance at […] inhibitor (ΔT50); type: biochemical
# Jack bean urease [2] = target: T1, Jack bean urease; experiment: cell-free pH-based (phenol red) urease activity assay; ΔT50 at […] inhibitor; type: biochemical
# T1 sequence (P07374 whole entry, looked up): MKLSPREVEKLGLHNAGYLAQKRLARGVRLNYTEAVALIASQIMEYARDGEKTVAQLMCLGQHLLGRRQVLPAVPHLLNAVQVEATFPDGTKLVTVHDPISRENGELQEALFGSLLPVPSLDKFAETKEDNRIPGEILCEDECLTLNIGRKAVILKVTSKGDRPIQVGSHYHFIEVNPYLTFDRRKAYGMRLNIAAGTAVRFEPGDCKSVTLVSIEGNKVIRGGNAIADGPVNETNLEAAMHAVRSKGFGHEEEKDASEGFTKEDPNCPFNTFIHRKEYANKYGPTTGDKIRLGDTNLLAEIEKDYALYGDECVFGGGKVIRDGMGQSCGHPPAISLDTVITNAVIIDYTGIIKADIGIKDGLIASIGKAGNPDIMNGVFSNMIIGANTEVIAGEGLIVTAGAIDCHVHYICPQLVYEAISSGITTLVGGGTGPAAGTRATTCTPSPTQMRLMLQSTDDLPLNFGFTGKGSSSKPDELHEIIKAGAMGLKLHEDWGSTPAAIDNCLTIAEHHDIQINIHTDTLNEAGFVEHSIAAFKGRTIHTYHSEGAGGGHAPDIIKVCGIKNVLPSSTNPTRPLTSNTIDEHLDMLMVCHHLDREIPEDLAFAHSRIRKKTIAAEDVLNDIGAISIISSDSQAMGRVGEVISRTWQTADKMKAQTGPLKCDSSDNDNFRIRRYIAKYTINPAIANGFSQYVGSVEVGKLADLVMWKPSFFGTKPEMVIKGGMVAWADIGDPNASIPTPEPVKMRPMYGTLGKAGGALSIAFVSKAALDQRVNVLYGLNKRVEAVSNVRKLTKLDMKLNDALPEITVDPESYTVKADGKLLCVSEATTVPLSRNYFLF
SMILES,cell-free pH-based (phenol red) urease activity assay; delay of half-maximal abs (Jack bean urease [1]),cell-free pH-based (phenol red) urease activity assay; ΔT50 at 0.1 mM inhibitor (Jack bean urease [2])
"CCCCCC#CC(=O)NO [2-octynoHA, 2-octynohydroxamic acid]",47.9 ± 2.6 min,–
"CC(=O)NO [AHA, acetohydroxamic acid]",–,2.8 ± 0.6 min
"CCCCCCCC(=O)NO [OHA, octanohydroxamic acid]",–,3.0 ± 1.6 min
